Entries after “also recorded” stand apart in the source; their conditions may differ. Like-named read-outs stand apart in the source and are kept apart here.
Key:
[1] = system: Spp1 mRNA; experiment: qRT-PCR of Spp1 mRNA expression in brain tissue of 5XFAD mice; assay type: in vivo, mouse; details: 0.1 mg/kg/day
Description: (§1) Age-matched wild-type (WT) mice were orally administered vehicle for 2.5 months. Blood was obtained from all the mice at the age of 8 months after completion of the treatment and collected in EDTA tubes, which were centrifuged to obtain plasma. Mice were sacrificed by the perfusion method, and the brain cortex was extracted and immediately frozen.
(§2) Blood was obtained from the 13-month-old mice after completion of the treatment and collected in EDTA tubes, which were centrifuged to obtain plasma. Mice were sacrificed, and the brain cortex was extracted, washed with PBS, and immediately frozen.
(§3) In addition, qRT-PCR was performed to measure the mRNA expression level in the brain tissue of each animal. […] Reverse transcription was performed using M-MLV reverse transcriptase (Invitrogen, 28025013). qRT-PCR was performed using the SYBRTM Green PCR master mix (Thermo, 4367659) according to the manufacturer's instructions. Results were expressed relative to the housekeeping gene GAPDH (Glyceraldehyde-3-Phosphate Dehydrogenase).

[2] = system: Map2, a dendrite marker; experiment: Immunohistochemical analysis of Map2 (dendrite/neurite marker) in brain tissue of 5XFAD mice; assay type: in vivo, mouse; details: 8-month-old 5XFAD mice, FIGS. 8 and 9
Description: as §1
The sections were counterstained with DAPI.

[3] = system: Synaptotagmin-1 (Syt1); experiment: ELISA of plasma synaptotagmin-1 in 5XFAD mice; assay type: in vivo, mouse; details: 8-month-old 5XFAD
Experimental: as §1
(§4) ELISA was performed to detect changes in the level of biomarkers in the plasma of 5XFAD mice. The following ELISA kits were used for each of the biomarkers: • Neurofilament-light chain (NfL): Cloud-Clone, SEE038Mu • Cathepsin B (CTSB): Novus, NBP2-67254 • Osteopontin (OPN): LS bio, LS-F26046-1 • Synaptotagmin-1 (Syt1): LS bio, LS-F30963-1 • Apolipoprotein-E (ApoE): Novus, NBP2-66739
(§5) NfL, CTSB and ApoE were detected by colorimetric methods. OPN and Syt1 were detected by chemiluminescent methods. ELISA was performed according to the ELISA kit manufacturer's instructions.

[4] = system: Apolipoprotein-E (ApoE); experiment: ELISA of plasma apolipoprotein-E in 5XFAD mice; assay type: in vivo, mouse; details: 8-month-old 5XFAD
Experimental: as §1, §4, §5

[5] = system: Neurofilament-light chain (NfL); experiment: ELISA of plasma neurofilament light chain in 5XFAD mice; assay type: in vivo, mouse
Description: as §1, §2, §4, §5

[6] = system: Cathepsin B (CTSB)
Description: as §1, §2, §4, §5

[7] = system: H2-Ob mRNA; experiment: qRT-PCR of H2-Ob mRNA expression in brain cortex of 5XFAD mice; assay type: in vivo, mouse; details: 8-month-old 5XFAD mice brain cortex, 0.1 mg/kg/day trametinib, FIG. 11
Experimental: as §1, §3

[8] = system: C57BL/6 mice whole brain; experiment: Whole cell RNA sequencing of whole brain of C57BL/6 mice after 1, 2, 3, or 4 weeks of administration; assay type: in vivo, mouse; details: 0.1 mg/kg/day
Experimental: Mice were sacrificed after 1, 2, 3, or 4 weeks of administration. Whole brain was extracted.
Whole cell RNA sequencing analysis was performed with the RNA isolated from the whole brain of the mice to observe the change of genes in the brain during the administration period.
The whole cell RNA sequencing was performed as follows. RNA was isolated from the whole brains of the mice, and cDNA libraries for RNA sequencing were prepared using the TruSeq Stranded mRNA Prep Kit (Illumina, San Diego, Calif.) according to the manufacturer's guidelines. The libraries were sequenced on the Illumina Nextseq500 platform, and the reads were mapped to the reference Mouse mm10 genome using Tophat v2.0.13. After read mapping, transcript assembly was performed using StringTie program. The expression profile for each sample was obtained, and RPKM (Read per Kilobase per million mapped reads) values were calculated based on the transcripts/genes. To compare the gene expression levels in each experimental group, DEG (Differentially Expressed Genes) were analyzed using DESeq2. As a result, 196 genes satisfying |fc|>=2, p value <0.05 in at least one comparison set were extracted. The extracted gene information was checked in KEGG database (http://www.kegg.jp/kegg/pathway.html) to identify which pathway the genes belong to. Genes showing at least a twofold increase in the expression level in the corresponding pathway were marked bold, and those showing at least a twofold decrease were marked italic on the right side of the heatmap (FIG. 10).

[9] = system: 8-month-old 5XFAD mouse brain cortex; experiment: Single cell RNA sequencing of brain cortex: number of single cells analyzed per cell type; assay type: in vivo; details: 8-month-old 5XFAD mice cortex, trametinib 0.1 mg/kg/day
Experimental: as §1
(§6) Single-cell RNA sequencing analysis was performed on the 8-month-old 5XFAD mouse and wild type mouse brain cortex samples. The cortex was microdissected in HABG (Hibernate A buffer including B27 supplement and glutamine) media and digested in papain solution for 20 min at 37° C. (Brewer et al (2007). Isolation and culture of adult neurons and neurospheres. Nat Protoc 2, 1490-1498). Using a Pasteur pipette, the digested cortex was gently triturated. Cells were isolated by the density gradient method using OptiPrep (Sigma-Aldrich, D1556).
The cell suspension was diluted with Drop-seq buffer, and Drop-seq was performed using the Chromium™ Single Cell 3′ v2 Reagent Kit (Campbell et al. (2017). A molecular census of arcuate hypothalamus and median eminence cell types. Nat Neurosci 20, 484-496). Libraries were sequenced on the Illumina HiSeq X Ten, and Read 1 was 16 bp (10×™ Barcode and 10 bp UMI). […]

[10] = system: Osteopontin (OPN); experiment: ELISA of plasma osteopontin in 5XFAD mice; assay type: in vivo, mouse; details: for Decrease of plasma osteopontin (OPN) level vs. 5XFAD-vehicle group: 8-month-old 5XFAD
Description: as §1, §2, §4, §5

[11] = system: 8-month-old 5XFAD mouse brain cortex
Experimental: as §1, §6
The cell suspension was diluted with Drop-seq buffer, and Drop-seq was performed using the Chromium™ Single Cell 3′ v2 Reagent Kit (Campbell et al. (2017). A molecular census of arcuate hypothalamus and median eminence cell types. Nat Neurosci 20, 484-496). Libraries were sequenced on the Illumina HiSeq X Ten, and Read 1 was 16 bp (10×™ Barcode and 10 bp UMI). Cells with either very low or too high mRNA content (to only include: 200<gene number <3,000) or a high fraction of mitochondrial encoded transcripts (>20%) were filtered out. Using 20,056 cells, raw sequence data were aligned to the mouse (mm10) genome, and analyses including PCA, t-SNE, and graph-based clustering were performed with the Cell Ranger Single-Cell software.
In addition to the microglial cells, the other brain cell types were also analyzed for the genes differentially expressed between the experimental groups.

[12] = 8-month-old 5XFAD, trametinib 0.1 mg/kg/day, statistically significant
[13] = C57BL/6 mice whole brain, at least twofold
[14] = M (microglia), 8-month-old 5XFAD cortex, 0.1 mg/kg/day
[15] = microglia cluster, 5XFAD-Tra 0.1 group

CC(=O)Nc1cccc(-n2c(=O)n(C3CC3)c(=O)c3c(Nc4ccc(I)cc4F)n(C)c(=O)c(C)c32)c1 [trametinib, N-(3-{3-cyclopropyl-5-[(2-fluoro-4-iodophenyl)amino]-6,8-dimethyl-2,4,7-trioxo-3,4,6,7-tetrahydropyrido[4,3-d]pyrimidin-1(2H)-yl}phenyl)acetamide]
Spp1 level (mRNA) compared with the 5XFAD-vehicle group ([1]; 8-month-old 5XFAD mice cortex, FIG. 1A): decreasing trend
Spp1 level (mRNA) compared with the 5XFAD-vehicle group ([1]; 13-month-old 5XFAD mice brain, FIG. 1B): decreasing trend
Neurite marker (Map2) in the brain tissue [2]: increased
Decrease of plasma synaptotagmin-1 (Syt1) level vs. 5XFAD-vehicle group ([3]; trametinib 0.05 mg/kg/day): 26.2%
Decrease of plasma synaptotagmin-1 (Syt1) level vs. 5XFAD-vehicle group ([3]; trametinib 0.1 mg/kg/day): 41.0%
Decrease of plasma apolipoprotein-E (APOE) level vs. 5XFAD-vehicle group ([4]; trametinib 0.1 mg/kg/day): 34.3%
Decrease of plasma apolipoprotein-E (APOE) level vs. 5XFAD-vehicle group ([4]; trametinib 0.2 mg/kg, statistically significant): 58.9%
Decrease of plasma neurofilament light chain (NfL) level vs. 5XFAD-vehicle group [5, 12]: 47.4%
Plasma NfL levels, vehicle vs. trametinib-administered groups ([5]; 13-month-old 5XFAD, trametinib 0.1 mg/kg/day 1 month, FIG. 7B): did not show a significant difference
Decrease of plasma cathepsin B level vs. 5XFAD-vehicle group ([6]; 8-month-old 5XFAD, trametinib 0.05 mg/kg/day): 62.4%
Decrease of plasma cathepsin B level vs. 5XFAD-vehicle group [6, 12]: 99%
Decrease of plasma cathepsin B level vs. 5XFAD-vehicle group ([6]; 13-month-old 5XFAD, trametinib 0.1 mg/kg/day 1 month, FIG. 6): 35%
H2-Ob mRNA expression level compared to the 5XFAD-vehicle group [7]: significantly increased
Genes showing an increase in the expression level in weeks 1 and 2 [8, 13]: Oprm1, Glp1r, Grin2a, Grin2b, Glra3,; also recorded: Glra1, Cnr2, Grin3b, Gabrr2, Ksr2, Cdh1,; also recorded: Tead4, Ctnna3, PDE11a, Nt5cla
Genes showing an increase in the expression level in weeks 3 and 4 [8, 13]: Plin4, H2-Ob, Hspa1l, HSPa1b, Hnmpa1,; also recorded: Nos2, Rab5c
Genes showing a decrease in the expression level in weeks 1 and 2 [8, 13]: Pla2g4c, C1s2
Genes showing a decrease in the expression level in weeks 3 and 4 [8, 13]: Efna4, Scd4, Cd36, Ppp3r2
H2-Ob level (whole brain RNA sequencing) ([8]; C57BL/6 mice, 3 and 4 weeks after the administration): remarkably increased
Microglial population compared to the 5XFAD-vehicle group [9]: decrease
Decrease of plasma osteopontin (OPN) level vs. 5XFAD-vehicle group ([10]; trametinib 0.05 mg/kg/day): 40%
Decrease of plasma osteopontin (OPN) level vs. 5XFAD-vehicle group ([10]; trametinib 0.1 mg/kg/day): 43.9%
Decrease of plasma osteopontin (OPN) level vs. vehicle group ([10]; 13-month-old 5XFAD, trametinib 0.1 mg/kg/day 1 month, statistically significant): 61.5%
Log2(5XFAD-Tra0.1/5XFAD-Veh) ApoE (Apolipoprotein E) ([11]; Astro (Astrocyte), 8-month-old 5XFAD cortex, 0.1 mg/kg/day): −0.5177
Log2(5XFAD-Tra0.1/5XFAD-Veh) CTSB (Cathepsin B) ([11]; Endo (Endothelial), 8-month-old 5XFAD cortex, 0.1 mg/kg/day): 0.8182
Log2(5XFAD-Tra0.1/5XFAD-Veh) CTSE (Cathepsin E) [11, 14]: −0.543
Log2(5XFAD-Tra0.1/5XFAD-Veh) Spp1 (Osteopontin) [11, 14]: −0.646
Decrease of Spp1 expression compared to the 5XFAD-vehicle group [11, 15]: at least 1.5 fold
Decrease of Wfdc17 expression compared to the 5XFAD-vehicle group [11, 15]: at least 1.5 fold
Expression of the Spp1 gene (in words) [11, 15]: decreased
Increase of Acta2 expression compared to the 5XFAD-vehicle group [11, 15]: at least 1.5 fold
Increase of Ptgds expression compared to the 5XFAD-vehicle group [11, 15]: at least 1.5 fold
Increase of Rpl9-ps6 expression compared to the 5XFAD-vehicle group [11, 15]: at least 1.5 fold
Increase of Rpl10-ps3 expression compared to the 5XFAD-vehicle group [11, 15]: at least 1.5 fold
